According to PMC3892053, “Pharmacokinetic/pharmacodynamic modeling for the determination of a cimicoxib dosing regimen in the dog” (BMC Veterinary Research, 2013):
≈ marks a conversion by molar mass, not a printed value. Read-outs that look alike come from different tables or passages of the source.

Columns and labels:
[1] = system: kaolin-induced paw inflammation; assay: PK/PD modelling (indirect response models) of kaolin paw inflammation endpoints; format: in vivo, dog; conditions: for EC50 at 2 mg/kg / IC50 at 2 mg/kg: po; for EC50 at 2 mg/kg: read-out: EC50, body temperature
Procedure: Pharmacokinetic and PK/PD modeling were performed by least-squares regression analysis using WinNonlin Professional software (WinNonlin® software, version 4.0.1, Pharsight Corporation, Mountain View, Ca, USA). For PK analysis, individual plasma cimicoxib concentrations were fitted to polyexponential equations. The data points were weighted by the inverse of the squared-fitted value. The number of exponential (2 or 3) terms needed to obtain the best fit for each data set was determined by the Akaike’s information criteria and by inspecting the plot of residuals. A biexponential equation corresponding to a mono-compartmental model for extravascular administration with a lag-time was selected (Equation 1).
As the effect cimicoxib on the local temperature and paw oedema after inflammation were present but lower than the other effects, these endpoints were not used for the PK/PD analysis. […] Finally, four endpoints were considered as suitable for the PK/PD analysis aiming at modelling the relationship between cimicoxib plasma concentrations and its antipyretic and anti-inflammatory effects, namely: body temperature (antipyretic effect), creeping speed, vertical force of the paw and clinical lameness score (anti-inflammatory effects).
The selected PK/PD models were of the class of the indirect response models as proposed by Dayneka. In these models, the measured response (R) is assumed to result from factors controlling either the development (Kin) or the dissipation (Kout) of the response according to Equation 3.
where dR/dt is the rate of change of the response over time, Kin represents the zero-order rate constant for production of the response and Kout the first-order rate constant for loss of the response. The time development of measured response was modeled by a sigmoid-Emax (maximum stimulatory effect) or sigmoid-Imax (maximum inhibition effect) function (Hill models) that can be exerted either on Kin or Kout. […] The effect of cimicoxib on the central temperature was based on a model assuming that during the inflammation phase, thermogenesis is increased (increase in Kin) while thermolysis is reduced (reduction in Kout) until a new balance for central temperature is reached. The antipyretic effect of an NSAID consisted of an increase in thermolysis (increase of Kout) enabling the central temperature to return to its control values, according to Equation 4:
(4) dR/dT=Kin-Kout×1+Emax×C^n/EC50^n+C^n×R
For the creeping test consisting of crossing the tunnel more or less rapidly, an empirical model postulating that the dog’s speed (m.s^-1) is the result of a balance between its motivation to move forward (Kin) and a braking effect (Kout) associated with the severity of inflammation with a lower Kout in control conditions than during inflammation. During inflammation, pain increases the braking effect (i.e. increase Kout) and decreases the speed to cross the tunnel. The anti-inflammatory effect of cimicoxib consisted in reducing the pain (by decreasing Kout), which in turn increased the speed to cross the tunnel as described by Equation 5:
(5) dR/dT=Kin-Kout×1-Imax×C^n/IC50^n+C^n×R
For the vertical force measured with the force plate apparatus normalized by the weight of the dog (without units), Kin represents the ground reaction forces in control resting conditions and Kout represents the factors prompting the withdrawal of limb from the ground in the case of inflammation due to pain i.e. that Kout is increased in the case of inflammation. Thus, the anti-inflammatory effect of cimicoxib consisted in a reduction of pain (decrease of Kout) and the same model as for the creeping speed under the tunnel was used (see Equation 5).
During inflammation, Kin is increased and the effect of cimicoxib was modelled using a concentration-dependent inhibition of Kin, according to Equation 6:
(6) dR/dT=Kin×1-C^n/IC50^n+C^n-Kout×R

[2] = design: method as in Vetoquinol, unpublished results; conditions: non-linear disposition, ref Vetoquinol, unpublished results, cited from earlier work
[3] = system: peri-operative pain; pain and inflammation associated with osteoarthritis; conditions: inferiority limit 20%, cited from earlier work
[4] = plasma concentration, oral 2 mg/kg, PM dogs, mean and range, 2 mg/kg

EC50 ([1]; Canis lupus familiaris, abstract, value matches EM dogs, read-out: plasma concentration corresponding to half the maximum of the indirect effect, body temperature): 0.193 mg/L (≈ 0.505 µM)
IC50 ([1]; Canis lupus familiaris, abstract, value matches EM dogs, read-out: plasma concentration corresponding to half the maximum of the indirect effect, creeping speed): 0.239 mg/L (≈ 0.626 µM)
IC50 ([1]; Canis lupus familiaris, abstract, value matches EM dogs, read-out: plasma concentration corresponding to half the maximum of the indirect effect, ground reaction vertical force): 0.161 mg/L (≈ 0.422 µM)
IC50 ([1]; Canis lupus familiaris, abstract, value matches EM dogs, read-out: plasma concentration corresponding to half the maximum of the indirect effect, lameness score): 0.284 mg/L (≈ 0.744 µM)
EC50 at 2 mg/kg ([1]; Canis lupus familiaris, plasma concentration, oral 2 mg/kg, EM dogs, mean and range): 0.193 mg/L (≈ 0.506 µM)
IC50 at 2 mg/kg ([1]; Canis lupus familiaris, plasma concentration, oral 2 mg/kg, EM dogs, mean and range, read-out: IC50, creeping speed): 0.239 mg/L (≈ 0.627 µM)
IC50 at 2 mg/kg ([1]; Canis lupus familiaris, plasma concentration, oral 2 mg/kg, EM dogs, mean and range, read-out: IC50, lameness score): 0.284 mg/L (≈ 0.745 µM)
IC50 at 2 mg/kg ([1]; Canis lupus familiaris, plasma concentration, oral 2 mg/kg, EM dogs, mean and range, read-out: IC50, vertical force): 0.161 mg/L (≈ 0.421 µM)
EC50 at 2 mg/kg ([1]; Canis lupus familiaris, plasma concentration, oral 2 mg/kg, PM dogs, mean and range): 0.473 mg/L (≈ 1.24 µM)
IC50 at 2 mg/kg ([1]; Canis lupus familiaris, plasma concentration, oral 2 mg/kg, PM dogs, mean and range, read-out: IC50, creeping speed): 0.345 mg/L (≈ 0.902 µM)
IC50 at 2 mg/kg ([1]; Canis lupus familiaris, plasma concentration, oral 2 mg/kg, PM dogs, mean and range, read-out: IC50, lameness score): 0.786 mg/L (≈ 2.06 µM)
IC50 at 2 mg/kg ([1]; Canis lupus familiaris, plasma concentration, oral 2 mg/kg, PM dogs, mean and range, read-out: IC50, vertical force): 0.325 mg/L (≈ 0.851 µM)
IC50, lameness score [1, 4]: 785.8 [579.4, 916.1] ng/mL
IC50, vertical force [1, 4]: 325.1 [235.3, 397.6] ng/mL
Compound: COc1ccc(-c2c(Cl)ncn2-c2ccc(S(N)(=O)=O)cc2)cc1F [cimicoxib]
Emax, body temperature ([1]; EM dogs, mean and range): 0.04 [0.03, 0.06] no unit
Imax, creeping speed ([1]; EM dogs, mean and range): 0.71 [0.38, 1.00] no unit
Imax, vertical force ([1]; EM dogs, mean and range): 0.98 [0.93, 1.00] no unit
Kin, body temperature ([1]; EM dogs, mean and range): 41.30 [20.76, 84.13] °C.h^-1
Kin, creeping speed ([1]; EM dogs, mean and range): 0.90 [0.15, 2.71] m.s^-1.h^-1
Kin, lameness score ([1]; EM dogs, mean and range): 5.34 [1.17, 16.87] score.h^-1
Kin, vertical force ([1]; EM dogs, mean and range): 0.09 [0.06, 0.10] normalised force.h^-1
Kout, body temperature ([1]; EM dogs, mean and range): 1.04 [0.53, 2.10] h^-1
Kout, creeping speed ([1]; EM dogs, mean and range): 0.95 [0.24, 2.02] h^-1
Kout, lameness score ([1]; EM dogs, mean and range): 1.08 [0.22, 3.54] h^-1
Kout, vertical force ([1]; EM dogs, mean and range): 7.40 [3.21, 10.00] h^-1
Emax, body temperature ([1]; PM dogs, mean and range): 0.04 [0.03, 0.04] no unit
Imax, creeping speed ([1]; PM dogs, mean and range): 0.70 [0.44, 0.87] no unit
Imax, vertical force ([1]; PM dogs, mean and range): 0.97 [0.95, 0.99] no unit
Kin, body temperature ([1]; PM dogs, mean and range): 45.84 [42.76, 49.19] °C.h^-1
Kin, creeping speed ([1]; PM dogs, mean and range): 0.76 [0.36, 0.97] m.s^-1.h^-1
Kin, lameness score ([1]; PM dogs, mean and range): 2.57 [0.70, 4.96] score.h^-1
Kin, vertical force ([1]; PM dogs, mean and range): 0.09 [0.07, 0.10] normalised force.h^-1
Kout, body temperature ([1]; PM dogs, mean and range): 1.17 [1.09, 1.25] h^-1
Kout, creeping speed ([1]; PM dogs, mean and range): 1.07 [0.80, 1.47] h^-1
Kout, lameness score ([1]; PM dogs, mean and range): 0.509 [0.14, 0.99] h^-1
Kout, vertical force ([1]; PM dogs, mean and range): 8.47 [5.09, 9.99] h^-1
dose of the simulations to which observed plasma concentrations correspond ([2]; oral dose of 1 mg/kg): 1.46 mg/kg
dose of the simulations to which observed plasma concentrations correspond ([2]; oral dose of 4 mg/kg): 3.18 mg/kg
comparison against firocoxib, primary efficacy endpoint ([3]; pain and inflammation associated with osteoarthritis): non-inferiority
comparison to carprofen on pain during the first 24 hours (composite pain clinical score) ([3]; peri-operative pain, orthopaedic or soft tissue surgery, carprofen 4 mg/kg per day): non-inferiority
